Reference: US20260176289A1, “SMALL MOLECULE INHIBITORS OF KRAS PROTEINS” (Merck Sharp & Dohme LLC, priority 2022, published 2026)
pIC50: −log10 of the molar value.

What was measured:
AsPC-1 cells = assay: Cellular phospho-ERK assay, AsPC-1 cells (homozygous KRAS-G12D); assay type: cell-based; details: Homo sapiens, ASPC1, 2 h, 2 hours compound incubation, read-out: AsPC1 pERK IC50
Procedure, shortened: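 Cells seeded at 10,000-15,000 per well were incubated overnight, then exposed to compound for 2 hours at 37 °C in a 10-point, 1:3 series topping at 30 μM final. Lysates were assayed by Alpha SureFire Ultra multiplex for p-ERK and total ERK; IC50 came from a 4-parameter logistic fit of their ratio.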

KRAS-WT = KRAS-WT (Homo sapiens, UniProt P01116); assay: SOS-catalyzed nucleotide exchange assay (Procedure A, TR-FRET), KRAS-WT; assay type: biochemical; details: nucleotide exchange, read-out: KRAS WT GNE IC50
Chain of KRAS-WT (P01116 with tags, fused parts or gaps isoform P01116-2): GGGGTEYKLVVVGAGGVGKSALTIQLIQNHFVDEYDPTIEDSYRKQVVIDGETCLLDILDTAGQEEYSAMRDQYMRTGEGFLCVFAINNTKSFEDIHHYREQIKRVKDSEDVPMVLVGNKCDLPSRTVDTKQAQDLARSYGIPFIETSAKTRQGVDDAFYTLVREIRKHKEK
Procedure, shortened: (§1)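 Inhibitors stabilizing the Bodipy-GDP state are detected as retained TR-FRET from a preformed biotinylated RAS/Tb-streptavidin complex. They are preincubated 60 min at room temperature, then human SOS and 3 mM GTP are added. G12V runs 90 min at 1.25 nM RAS/160 nM SOS. G12C (3 nM), WT (1 nM) and NRAS (1.25 nM) run 60 min with 40 nM SOS.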

KRAS-G12D = KRAS-G12D (Homo sapiens, UniProt P01116, G12D); assay: SOS-catalyzed nucleotide exchange assay (Procedure A, TR-FRET), KRAS-G12D; assay type: biochemical; details: nucleotide exchange, read-out: KRAS G12D GNE IC50
Chain of KRAS-G12D (P01116 with tags, fused parts or gaps isoform P01116-2 G12D): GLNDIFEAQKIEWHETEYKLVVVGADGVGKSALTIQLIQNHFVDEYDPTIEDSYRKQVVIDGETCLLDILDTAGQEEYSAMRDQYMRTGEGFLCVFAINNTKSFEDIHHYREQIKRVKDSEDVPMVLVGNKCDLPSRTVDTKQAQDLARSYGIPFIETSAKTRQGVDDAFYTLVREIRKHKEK
Procedure, shortened: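 Signal ratio (520/495 nm, excitation 340 nm) reports Bodipy-GDP retention on biotinylated RAS after SOS-catalyzed exchange with 3 mM GTP. SOS was 40 nM, except 160 nM for G12V. Room-temperature exchange lasted 60 min (90 min for G12V), following a 60 min compound preincubation.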

KRAS-G12V = KRAS-G12V (Homo sapiens, UniProt P01116, G12V); assay: SOS-catalyzed nucleotide exchange assay (Procedure A, TR-FRET), KRAS-G12V; assay type: biochemical; details: nucleotide exchange, read-out: KRAS G12V GNE IC50
Chain of KRAS-G12V (P01116 with tags, fused parts or gaps isoform P01116-2 G12V): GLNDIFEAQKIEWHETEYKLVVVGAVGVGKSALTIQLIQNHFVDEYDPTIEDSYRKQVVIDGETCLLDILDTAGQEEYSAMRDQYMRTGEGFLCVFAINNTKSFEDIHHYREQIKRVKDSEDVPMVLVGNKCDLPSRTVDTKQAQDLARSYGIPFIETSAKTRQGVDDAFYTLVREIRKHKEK
Procedure, shortened: as §1

| Structure (SMILES) | pIC50 (AsPC-1 cells) | pIC50 (KRAS-WT) | pIC50 (KRAS-G12D) | pIC50 (KRAS-G12V) |
| --- | --- | --- | --- | --- |
| COCC12CC(CN1C[C@@]1(COc3nc(N4CCOC[C@@](C)(O)C4)c4c(n3)sc3c(-c5c(C6(F)CC6)c(Cl)cc6[nH]ncc56)nccc34)CC1(F)F)C2 [Ex-258, (6S)-4-(8-(6-chloro-5-(1-fluorocyclopropyl)-1H-indazol-4-yl)-2-(((R)-2,2-difluoro-1-((1-(methoxymethyl)-2-azabicyclo[2.1.1]hexan-2-yl)methyl)cyclopropyl)metho-xy)pyrido[4′,3′:4,5]thieno[2,3-d]pyrimidin-4-yl)-6-methyl-1,4-oxazepan-6-ol] | 6.91 | 7.41 | 8.15 | 7.60 |
| C[C@@]1(O)COCCN(c2nc(OC[C@]3(CN4CC5CC4(CF)C5)CC3(F)F)nc3sc4c(-c5c(C6(F)CC6)c(Cl)cc6[nH]ncc56)nccc4c23)C1 [Ex-259, (6S)-4-(8-(6-chloro-5-(1-fluorocyclopropyl)-1H-indazol-4-yl)-2-(((R)-2,2-difluoro-1-((1-(fluoromethyl)-2-azabicyclo[2.1.1]hexan-2-yl)methyl)cyclopropyl)metho-xy)pyrido[4′,3′:4,5]thieno[2,3-d]pyrimidin-4-yl)-6-methyl-1,4-oxazepan-6-ol] | 6.73 | 7.10 | 7.95 | 7.47 |
| CO[C@]12CC[C@H]1CN(C[C@@]1(COc3nc(N4CCOC[C@@](C)(O)C4)c4c(n3)sc3c(-c5c(C6(F)CC6)c(Cl)cc6[nH]ncc56)nccc34)CC1(F)F)C2 [Ex-260, (6S)-4-(8-(6-chloro-5-(1-fluorocyclopropyl)-1H-indazol-4-yl)-2-(((R)-2,2-difluoro-1-(((1R,5S)-1-methoxy-3-azabicyclo[3.2.0]heptan-3-yl)methyl)cyclopropyl)metho-xy)pyrido[4′,3′:4,5]thieno[2,3-d]pyrimidin-4-yl)-6-methyl-1,4-oxazepan-6-ol] | 5.92 | 6.31 | 7.38 | 6.73 |
| C[C@@H]1CCN1C[C@@]1(COc2nc(N3CCOC[C@@](C)(O)C3)c3c(n2)sc2c(-c4c(C5(F)CC5)c(Cl)cc5[nH]ncc45)nccc23)CC1(F)F [Ex-261, (6S)-4-(8-(6-chloro-5-(1-fluorocyclopropyl)-1H-indazol-4-yl)-2-(((R)-2,2-difluoro-1-(((R)-2-methylazetidin-1-yl)methyl)cyclopropyl)metho-xy)pyrido[4′,3′:4,5]thieno[2,3-d]pyrimidin-4-yl)-6-methyl-1,4-oxazepan-6-ol] | 6.43 | 7.09 | 7.77 | 7.23 |
| COC1CC2(C1)CN(C[C@@]1(COc3nc(N4CCOC[C@@](C)(O)C4)c4c(n3)sc3c(-c5c(C6(F)CC6)c(Cl)cc6[nH]ncc56)nccc34)CC1(F)F)C2 [Ex-263, (6S)-4-(8-(6-chloro-5-(1-fluorocyclopropyl)-1H-indazol-4-yl)-2-(((R)-2,2-difluoro-1-((6-methoxy-2-azaspiro[3.3]heptan-2-yl)methyl)cyclopropyl)metho-xy)pyrido[4′,3′:4,5]thieno[2,3-d]pyrimidin-4-yl)-6-methyl-1,4-oxazepan-6-ol] | 6.95 | 7.94 | 8.52 | 7.90 |
| C[C@@]1(O)COCCN(c2nc(OC[C@]3(CN4CCOC5(CC5)C4)CC3(F)F)nc3sc4c(-c5c(C6(F)CC6)c(Cl)cc6[nH]ncc56)nccc4c23)C1 [Ex-264, (6S)-4-(2-(((R)-1-((4-oxa-7-azaspiro[2.5]octan-7-yl)methyl)-2,2-difluorocyclopropyl)methoxy)-8-(6-chloro-5-(1-fluorocyclopropyl)-1H-indazol-4-yl)pyrido[4′,3′:4,5]thieno[2,3-d]pyrimidin-4-yl)-6-methyl-1,4-oxazepan-6-ol] | 6.21 | 6.45 | 7.19 | 6.67 |
